Like-named read-outs stand apart in the source and are kept apart here.
Assays:
FgCelDH7C [1] = molecular target: T1, FgCelDH7C (Fusarium graminearum, UniProt I1RWY4); type: biochemical; conditions: apparent, 0.1 mM DCIP as acceptor, 50 mM HEPES pH 7.0, 35 °C
T1 construct: gene FGRAMPH1_01T10923

MoChi7A = molecular target: T2, MoChi7A (Pyricularia oryzae, UniProt G4NAH7); type: biochemical; conditions: apparent; O2 as acceptor; 50 mM NaOAc pH 5.2, 35 °C; read-out: Enzyme / MoChi7A / Cellotriose
T2 construct: gene MGG_09717

FgCelDH7C [2] = molecular target: T1, FgCelDH7C; type: binding; conditions: covalent; mono-covalent histidyl tether
FgChi7B = molecular target: T3, FgChi7B (Fusarium graminearum, UniProt A0A098DND1); conditions: covalent; bi-covalent, 6-S-cysteinyl C162 and 8alpha-N1-histidyl H102
T3 construct: gene FGRAMPH1_01T15319
T3 sequence (A0A098DND1 21-504 limits assumed): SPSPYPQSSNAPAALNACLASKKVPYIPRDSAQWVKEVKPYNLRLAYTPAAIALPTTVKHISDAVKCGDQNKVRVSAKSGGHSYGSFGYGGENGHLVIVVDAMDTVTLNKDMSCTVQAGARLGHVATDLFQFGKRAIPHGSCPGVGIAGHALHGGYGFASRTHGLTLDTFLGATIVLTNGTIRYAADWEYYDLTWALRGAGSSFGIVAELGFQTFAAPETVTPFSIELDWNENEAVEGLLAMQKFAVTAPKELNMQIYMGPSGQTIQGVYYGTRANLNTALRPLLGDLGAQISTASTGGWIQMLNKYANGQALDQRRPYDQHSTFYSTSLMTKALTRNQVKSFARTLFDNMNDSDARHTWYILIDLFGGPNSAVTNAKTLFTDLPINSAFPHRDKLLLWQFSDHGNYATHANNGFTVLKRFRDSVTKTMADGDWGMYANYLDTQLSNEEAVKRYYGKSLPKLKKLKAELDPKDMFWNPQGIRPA

T2 sequence (G4NAH7 21-718 limits assumed): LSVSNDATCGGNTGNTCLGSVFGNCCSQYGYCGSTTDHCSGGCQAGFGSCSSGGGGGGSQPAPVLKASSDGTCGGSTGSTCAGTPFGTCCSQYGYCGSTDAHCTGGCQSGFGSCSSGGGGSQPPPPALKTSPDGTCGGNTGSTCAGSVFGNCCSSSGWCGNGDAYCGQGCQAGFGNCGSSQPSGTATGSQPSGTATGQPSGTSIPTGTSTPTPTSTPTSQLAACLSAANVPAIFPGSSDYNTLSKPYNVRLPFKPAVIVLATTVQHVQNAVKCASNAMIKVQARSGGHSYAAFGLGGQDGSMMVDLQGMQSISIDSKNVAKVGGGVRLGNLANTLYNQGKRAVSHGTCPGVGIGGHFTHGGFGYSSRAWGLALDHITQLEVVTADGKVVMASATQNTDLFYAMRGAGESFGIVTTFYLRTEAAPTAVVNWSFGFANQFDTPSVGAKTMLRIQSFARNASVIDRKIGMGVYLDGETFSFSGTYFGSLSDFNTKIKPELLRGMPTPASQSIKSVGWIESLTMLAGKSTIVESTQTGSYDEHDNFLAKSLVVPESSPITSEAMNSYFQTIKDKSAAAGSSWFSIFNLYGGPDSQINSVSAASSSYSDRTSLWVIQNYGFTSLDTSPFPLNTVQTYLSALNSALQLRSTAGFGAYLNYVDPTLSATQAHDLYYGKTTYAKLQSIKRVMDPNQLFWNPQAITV
T1 sequence (I1RWY4 24-499 limits assumed): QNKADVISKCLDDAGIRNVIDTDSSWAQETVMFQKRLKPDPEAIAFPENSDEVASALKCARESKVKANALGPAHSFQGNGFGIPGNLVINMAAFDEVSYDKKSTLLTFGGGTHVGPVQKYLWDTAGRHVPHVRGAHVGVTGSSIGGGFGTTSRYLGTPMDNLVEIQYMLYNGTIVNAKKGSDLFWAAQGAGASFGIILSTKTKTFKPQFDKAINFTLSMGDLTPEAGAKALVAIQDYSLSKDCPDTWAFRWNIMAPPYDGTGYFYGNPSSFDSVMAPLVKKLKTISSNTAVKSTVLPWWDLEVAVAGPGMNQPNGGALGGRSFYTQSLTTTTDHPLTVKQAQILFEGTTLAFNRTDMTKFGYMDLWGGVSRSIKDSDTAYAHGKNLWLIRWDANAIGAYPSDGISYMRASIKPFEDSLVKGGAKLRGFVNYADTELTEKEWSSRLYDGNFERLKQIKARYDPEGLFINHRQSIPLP

Q: Which Km (FgCelDH7C [1]; read-out: Enzyme / PbChi7A / Cellotetraose) does the source give for `OC[C@H]1O[C@@H](O[C@H]2[C@H](O)[C@@H](O)[C@H](O[C@H]3[C@H](O)[C@@H](O)[C@H](O[C@H]4[C@H](O)[C@@H](O)C(O)O[C@@H]4CO)O[C@@H]3CO)O[C@@H]2CO)[C@H](O)[C@@H](O)[C@@H]1O` (some centres unmarked) [Cellotetraose] here?
A: Its Km is 6060 ± 270 µM.

Q: `CC(=O)N[C@H]1[C@H](O[C@H]2[C@H](O)[C@@H](NC(C)=O)C(O)O[C@@H]2CO)O[C@H](CO)[C@@H](O)[C@@H]1O` (some centres unmarked) [Chitobiose] was tested. Which Km (MoChi7A) did it give?
A: The Km was 64 ± 10 µM.

Q: For `OC[C@H]1O[C@@H](O[C@H]2[C@H](O)[C@@H](O)C(O)O[C@@H]2CO)[C@H](O)[C@@H](O)[C@@H]1O` (some centres unmarked) [Cellobiose], which Km (FgCelDH7C [1]; read-out: Parameter / Cellobiose) is on record?
A: The Km was 5350 ± 390 µM.

Q: With `OC[C@H]1O[C@@H](O[C@H]2[C@H](O)[C@@H](O)[C@H](O[C@H]3[C@H](O)[C@@H](O)C(O)O[C@@H]3CO)O[C@@H]2CO)[C@H](O)[C@@H](O)[C@@H]1O` (some centres unmarked) [Cellotriose] as the molecule, how does the Km (FgCelDH7C [1]; read-out: Enzyme / Cellotriose, read-out: Enzyme / MoChi7A / Cellotriose) read?
A: The Km was 3940 ± 220 µM.

Q: With `CC(=O)N[C@H]1C(O)O[C@H](CO)[C@H](O)[C@@H]1O` (some centres unmarked) [GalNAc] as the molecule, how does the Km (MoChi7A) read?
A: The Km was 1690 ± 120 µM.

Q: Which “crystal structure, 1.6 Å” value (FgCelDH7C [2]) does the source give for `Cc1cc2nc3c(=O)[nH]c(=O)nc-3n(C[C@H](O)[C@H](O)[C@H](O)COP(=O)(O)OP(=O)(O)OC[C@H]3O[C@@H](n4cnc5c(N)ncnc54)[C@H](O)[C@@H]3O)c2cc1C` [FAD] here?
A: The value was “FgCelDH7C is mono-covalently histidyl-tethered due to the substitution of the FAD-tethering cysteine to a glycine”.

Q: What about the “crystal structure, 2.4 Å” value (FgChi7B) of the same molecule?
A: Its value is “isoalloxazine ring of the FAD cofactor in FgChi7B is bi-covalently anchored at the C6 atom”.

Q: `CC(=O)N[C@H]1C(O)O[C@H](CO)[C@@H](O)[C@@H]1O` (some centres unmarked) [GlcNAc] was tested. Which Km (MoChi7A) did it give?
A: The Km was 800 ± 50 µM.
